Measured values: ChEMBL document CHEMBL3881525, “Analogs of dehydrophenylahistins and their therapeutic use” (2007)
In brackets after ≈: the same amount, converted by molar mass. Activity calls are given as the source filed them. No cut-off for these calls is given here.

Assays:
[1] = Cytotoxicity against human HT-29 cells assessed as reduction in cell viability measured after 48 hrs by resazurin dye-based fluorometric analysis relative to control; assay type: functional
[2] = Cytotoxicity against human HT-29 cells assessed as reduction in cell viability measured after 48 hrs by resazurin dye-based fluorometric analysis; assay type: functional
Aspergillus fumigatus [3] = experiment: Antifungal activity against Aspergillus fumigatus isolate 2 measured after 48 hrs by broth dilution method; assay type: functional; conditions: isolate 2, 48 h
[4] = Antifungal activity against Trichophyton rubrum isolate 1 measured after 48 hrs by broth dilution method; assay type: functional
[5] = Antifungal activity against Trichophyton mentagrophytes isolate 1 measured after 48 hrs by broth dilution method; assay type: functional
[6] = Antifungal activity against Trichophyton mentagrophytes isolate 2 measured after 48 hrs by broth dilution method; assay type: functional
[7] = Antifungal activity against Epidermophyton floccosum isolate 1 measured after 48 hrs by broth dilution method; assay type: functional
[8] = Antifungal activity against Trichophyton rubrum isolate 2 measured after 48 hrs by broth dilution method; assay type: functional
[9] = Cytotoxicity against human PC3 cells assessed as reduction in cell viability measured after 48 hrs by resazurin dye-based fluorometric analysis relative to control; assay type: functional, PC-3; parameters: concentration or dose not given beside the values
Aspergillus fumigatus [10] = experiment: Antifungal activity against Aspergillus fumigatus isolate 1 measured after 48 hrs by broth dilution method; assay type: functional; conditions: isolate 1, 48 h
Tubulin (Homo sapiens) [11] = biological target: T1, Tubulin (Homo sapiens) (UniProt P68371+Q9H4B7+P0DPH7+P68366+Q13509+Q71U36+P04350+Q3ZCM7+P07437+P68363+Q9BQE3+Q6PEY2+Q13885+Q9BVA1+Q9BUF5); experiment: Induction of microtubule depolymerization in HUVEC at 1.5 to 5 uM by turbidity spectroscopic analysis; assay type: cell-based
MES-SA = experiment: Ratio of EC50 for taxol-resistant human MES-SA/DX5 cells expressing MDR1 mRNA and P-gp to EC50 for taxol-sensitive human MES-SA cells; assay type: functional
HL-60 = experiment: Ratio of EC50 for human mitoxantrone-sensitive HL60 cells to EC50 for human mitoxantrone-resistant HL60/MX2 cells; assay type: functional
Tubulin (Homo sapiens) [12] = biological target: T1, Tubulin (Homo sapiens); experiment: Induction of microtubule depolymerization in HUVEC at 20 nM measured after 30 mins by DAPI-staining based immunofluorescence analysis; assay type: cell-based
[13] = Antiproliferative activity against taxol-resistant human MES-SA/Dx5 cells expressing MDR1 mRNA and P-gp; assay type: functional, cell-based

| Compound | inhibition (INH) [1] | EC50 ([2]; Homo sapiens, HT-29, 48 h) | other results |
| --- | --- | --- | --- |
| C=CC(C)(C)c1[nH]cnc1/C=C1\N=C(OC)C(Cc2ccccc2)N=C1OC (stereo unspecified) | 4% | > 2000 nM |  |
| Cc1cccc(/C=c2\[nH]c(=O)/c(=C/c3nc[nH]c3C(C)(C)C)[nH]c2=O)n1.O=C(O)C(F)(F)F.O=C(O)C(F)(F)F | 37% | > 2000 nM |  |
| CC(C)(C)c1ccc(O)c(/C=c2\[nH]c(=O)/c(=C/c3ccccc3)[nH]c2=O)c1.O=C(O)C(F)(F)F | 14% | > 2000 nM |  |
| COc1cccc(C)c1/C=c1\[nH]c(=O)/c(=C/c2nc[nH]c2C(C)(C)C)[nH]c1=O |  | 517 nM |  |
| CC(C)(C)c1[nH]cnc1/C=c1\[nH]c(=O)/c(=C/c2cc(Cl)ccc2O)[nH]c1=O.O=C(O)C(F)(F)F | 37% | > 2000 nM |  |
| COC1=CC(=O)C[C@@H](C)[C@]12Oc1c(Cl)c(OC)cc(OC)c1C2=O [GRISEOFULVIN] |  |  | MIC (Aspergillus fumigatus [3]): 0.5 µg/mL (≈ 1.42 µM); MIC [4]: 0.5 µg/mL (≈ 1.42 µM); MIC [5]: 1 µg/mL (≈ 2.83 µM); MIC [6]: 2 µg/mL (≈ 5.67 µM); MIC [7]: 2 µg/mL (≈ 5.67 µM); MIC [8]: < 0.015 µg/mL |
| CC(C)(C)c1[nH]cnc1/C=c1\[nH]c(=O)/c(=C/c2cccc(OC(F)(F)F)c2)[nH]c1=O.O=C(O)C(F)(F)F | 87% | 13 to 14.3 nM |  |
| CC(C)(C)c1[nH]cnc1/C=c1\[nH]c(=O)/c(=C/c2cc(Cl)cc(Cl)c2)[nH]c1=O.O=C(O)C(F)(F)F | 87% |  |  |
| C=CC(C)(C)c1[nH]cnc1/C=c1\[nH]c(=O)/c(=C\c2ccc(OC)cc2)[nH]c1=O | 63% |  |  |
| Cc1c(F)cccc1/C=c1\[nH]c(=O)/c(=C/c2nc[nH]c2C(C)(C)C)[nH]c1=O.O=C(O)C(F)(F)F | 86% |  |  |
| CC(C)(C)c1ocnc1/C=c1\[nH]c(=O)/c(=C/c2cc3ccccc3s2)[nH]c1=O |  | > 2000 nM |  |
| C=CC(C)(C)c1[nH]cnc1/C=c1\[nH]c(=O)/c(=C/c2ccc(OC)cc2)[nH]c1=O | 63% | 6570 to 6730 nM |  |
| CSc1ccccc1/C=c1\[nH]c(=O)/c(=C/c2nc[nH]c2C(C)(C)C)[nH]c1=O.O=C(O)C(F)(F)F | 87% |  |  |
| COc1cccc(/C=c2\[nH]c(=O)/c(=C/c3nc[nH]c3C(C)(C)C)[nH]c2=O)c1O | 79 - 86% | 5360 to 5870 nM |  |
| CCc1ccc(/C=c2\[nH]c(=O)/c(=C/c3nc[nH]c3C(C)(C)C)[nH]c2=O)s1.O=C(O)C(F)(F)F | 87% |  |  |
| C=CC(C)(C)c1[nH]cnc1/C=C1\NC(=O)C(Cc2ccccc2)N=C1OC (stereo unspecified) | 13% | > 2000 nM |  |
| Cn1cccc1/C=c1\[nH]c(=O)/c(=C/c2nc[nH]c2C(C)(C)C)[nH]c1=O.O=C(O)C(F)(F)F | 88% | 105 to 117 nM |  |
| COc1cccc(/C=c2\[nH]c(=O)/c(=C/c3nc[nH]c3C(C)(C)C)[nH]c2=O)c1N.O=C(O)C(F)(F)F | 87% |  |  |
| COc1cc(OC)c(/C=c2\[nH]c(=O)/c(=C/c3nc[nH]c3C(C)(C)C)[nH]c2=O)c(OC)c1.O=C(O)C(F)(F)F | 2% | > 2000 nM |  |
| CC(C)(C)c1ocnc1/C=c1\[nH]c(=O)/c(=C/c2cn(S(=O)(=O)c3ccccc3)c3ccccc23)[nH]c1=O |  | > 6230 nM |  |
| Cc1[nH]cnc1/C=c1\[nH]c(=O)/c(=C/c2nc[nH]c2C(C)(C)C)[nH]c1=O.O=C(O)C(F)(F)F.O=C(O)C(F)(F)F | 84% | 2350 to 2790 nM |  |
| CC(C)(C)c1[nH]cnc1/C=c1\[nH]c(=O)/c(=C/c2ccc3c(c2)OCO3)[nH]c1=O | 84% | 82 to 87.3 nM | Activity [9]: 95% |
| COc1ccsc1/C=c1\[nH]c(=O)/c(=C/c2nc[nH]c2C(C)(C)C)[nH]c1=O.O=C(O)C(F)(F)F | 88% |  |  |
| CC(C)(C)c1[nH]cnc1/C=c1\[nH]c(=O)/c(=C/c2ccc(C#N)cc2)[nH]c1=O.O=C(O)C(F)(F)F | 14% |  |  |
| CC(C)(C)c1ocnc1/C=c1\[nH]c(=O)/c(=C/c2c3ccccc3cc3ccccc23)[nH]c1=O |  | > 6230 nM |  |

| Compound | inhibition (INH) [1] | EC50 ([2]; Homo sapiens, HT-29, 48 h) | other results |
| --- | --- | --- | --- |
| COc1ccc(/C=c2\[nH]c(=O)/c(=C/c3nc[nH]c3C(C)(C)C)[nH]c2=O)cc1O.O=C(O)C(F)(F)F | 66% |  |  |
| CC(C)(C)c1[nH]cnc1/C=c1\[nH]c(=O)/c(=C/c2ccc(Br)o2)[nH]c1=O.O=C(O)C(F)(F)F | 87% |  |  |
| COc1ccc(F)c(/C=c2\[nH]c(=O)/c(=C/c3nc[nH]c3C(C)(C)C)[nH]c2=O)c1.O=C(O)C(F)(F)F | 88% | 19 to 20.3 nM |  |
| CCc1ccc(/C=c2\[nH]c(=O)/c(=C/c3nc[nH]c3C(C)(C)C)[nH]c2=O)o1.O=C(O)C(F)(F)F | 86% | 2420 nM |  |
| CC(C)(C)c1[nH]cnc1/C=c1\[nH]c(=O)/c(=C/c2ccccc2N)[nH]c1=O.O=C(O)C(F)(F)F | 86% |  |  |
| CCC(C)n1ncn(-c2ccc(N3CCN(c4ccc(OCC5COC(Cn6cncn6)(c6ccc(Cl)cc6Cl)O5)cc4)CC3)cc2)c1=O (stereo unspecified) [ITRACONAZOLE] |  |  | MIC (Aspergillus fumigatus [10]): 1 µg/mL (≈ 1.42 µM) |
| COc1cccc(/C=c2\[nH]c(=O)/c(=C/c3nc[nH]c3C(C)(C)C)[nH]c2=O)c1[N+](=O)[O-].O=C(O)C(F)(F)F | 83% |  |  |
| Cc1ccc(/C=c2\[nH]c(=O)/c(=C/c3nc[nH]c3C(C)(C)C)[nH]c2=O)s1 | 85 - 97% | 80 to 85.2 nM |  |
| CC(C)(C)c1[nH]cnc1/C=c1\[nH]c(=O)/c(=C/c2cc(Br)cs2)[nH]c1=O.O=C(O)C(F)(F)F | 86% | 1710 nM |  |
| COc1ccc(/C=c2\[nH]c(=O)/c(=C/c3nc[nH]c3C(C)(C)C)[nH]c2=O)c(O)c1.O=C(O)C(F)(F)F | 8% | > 2000 nM |  |
| Cc1ccsc1/C=c1\[nH]c(=O)/c(=C/c2nc[nH]c2C(C)(C)C)[nH]c1=O | 86% | 44 to 47 nM | Activity [9]: 81% |
| CC(C)(C)c1[nH]cnc1/C=c1\[nH]c(=O)/c(=C/c2cccc3c2OCO3)[nH]c1=O |  |  | EC50 ([2]; ht-29): 52 nM |
| COc1cccc2cc3c(=O)[nH]/c(=C\c4nc[nH]c4C(C)(C)C)c(=O)n3c12 | 58 - 100% | 6920 to 7040 nM |  |
| COc1cc(/C=c2\[nH]c(=O)/c(=C/c3nc[nH]c3C(C)(C)C)[nH]c2=O)cc(OC)c1 | 87% | 42 to 45.4 nM | Activity [9]: 82% |
| CC(C)(C)c1[nH]cnc1/C=c1\[nH]c(=O)/c(=C/c2cc(Br)ccc2O)[nH]c1=O.O=C(O)C(F)(F)F | 13% | > 2000 nM |  |
| Cc1cccc(/C=c2\[nH]c(=O)/c(=C/c3nc[nH]c3C(C)(C)C)[nH]c2=O)c1C.O=C(O)C(F)(F)F | 87% | 2.96 to 3 nM |  |
| CC(C)(C)c1ccc(O)c(/C=c2\[nH]c(=O)/c(=C/c3nc[nH]c3C(C)(C)C)[nH]c2=O)c1.O=C(O)C(F)(F)F | 80% |  |  |
| CC(C)(C)c1ocnc1/C=c1\[nH]c(=O)/c(=C/c2c(F)ccc(F)c2F)[nH]c1=O |  |  | Activity (Tubulin (Homo sapiens) [11]): Active; Ratio EC50 (MES-SA): 1.2; Ratio EC50 (HL-60): 1; Activity (Tubulin (Homo sapiens) [12]): Active; IC50 [13]: 27 nM |
| Cc1ccc(C)c(/C=c2\[nH]c(=O)/c(=C/c3nc[nH]c3C(C)(C)C)[nH]c2=O)c1.O=C(O)C(F)(F)F | 87% |  |  |
| CC(C)(C)c1[nH]cnc1/C=c1\[nH]c(=O)/c(=C/c2cccc3c2OCO3)[nH]c1=O.O=C(O)C(F)(F)F | 82% |  | EC50 ([2]; ht-29): 477 to 520 nM |
| CC(C)(C)c1[nH]cnc1/C=c1\[nH]c(=O)/c(=C/c2cc([N+](=O)[O-])ccc2Cl)[nH]c1=O | 86% | 51 to 53.4 nM | Activity [9]: 100% |
| CC(C)(C)c1[nH]cnc1/C=c1\[nH]c(=O)/c(=C/c2sccc2B(O)O)[nH]c1=O.O=C(O)C(F)(F)F | 88% |  |  |
| CC(C)(C)c1[nH]cnc1/C=c1\[nH]c(=O)/c(=C/c2ccc(Cl)s2)[nH]c1=O |  | 165 to 184 nM |  |
| COc1cc(/C=c2\[nH]c(=O)/c(=C/c3nc[nH]c3C(C)(C)C)[nH]c2=O)ccc1F.O=C(O)C(F)(F)F | 85% |  |  |
